Results taken from patent US6555709B1, “Aromatic amides, their preparation process and their use as pesticides” (Hoechst Schering AgrEvo S.A., priority 1997, dated 2003).

Columns and labels:
Format in all cases: in vivo
Phaedon Cochleariae = experiment: Study on Phaedon cochleariae, treated Chinese cabbage foliar disks; details: dose of 300 ppm; adults on dipped Chinese cabbage disks; checked after seven days; 25° C.
Procedure: A) Study on Phaedon Cochleariae The product was dissolved at the desired concentration in an acetone-water mixture (50-50). Foliar disks of Chinese cabbage (Brassica pekinensis) were immersed for five seconds in the solution, then left to dry for one hour. Ten adults (a mixture of males and females) were added into a Petri dish containing a foliar disk. These were kept at a temperature of 25° C., with a photoperiod of twelve hours. After seven days, the mortality of the insects was checked and the foliar surface consumed is evaluated.

Spodoptera Littoralis = experiment: Study on Spodoptera littoralis, treated haricot leaves; details: starting from a dose of 300 ppm; larvae on dipped haricot leaves; checked after seven days; 25° C.
Procedure: B) Study on Spodoptera Littoralis The product was dissolved at the desired concentration in an acetone-water mixture (50-50). Haricot leaves (Phaseolus vulgaris, var. […]) were immersed for five seconds in the solution, then left to dry in a Petri dish for one hour. Ten larvae of Spodoptera littoralis were then added to each dish. These are were at a temperature of 25° C., with a photoperiod of twelve hours. After seven days, the mortality of the larvae was checked and the foliar surface consumed is evaluated.

Heliothis Virescens = experiment: Study on Heliothis virescens, treated artificial medium; details: starting from a dose of 300 ppm; neonate larva on treated artificial medium; checked after seven days; 25° C.
Procedure: C) Study on Heliothis Virescens The product was dissolved at the desired concentration in an acetone-water mixture (50-50). 50 μl of solution is deposited on the surface of small well containing approximately 2 grams of plant based artificial medium. One neonate larva of Heliothis virescens was then introduced into each well, which was sealed with a sheet of cellophane. The tests were kept at a temperature of 25° C., with a photoperiod of twelve hours., The mortality of the larvae was checked after seven days.

[1] = system: Diabrotica undecimpunctata; experiment: Study of the activity on Diabrotica, treated filter paper; details: starting from a dose of 300 ppm; final stage larvae on treated filter paper; checked 24 hours after treatment
Procedure: D) Study of the Activity on Diabrotica The test insects were final stage larvae of Diabrotica undecimpunctata. A 9 cm disc of filter paper, placed at the bottom of Petri dish, was treated using 1 cm^3 of an acetone solution. After drying 15 larvae per dose were deposited and the mortality check was carried out 24 hours after treatment.

SMILES	activity (mortality of the insects and foliar surface consumed) (Phaedon Cochleariae)	activity (mortality of the larvae and foliar surface consumed) (Spodoptera Littoralis)	activity (mortality of the larvae) (Heliothis Virescens)	activity (mortality) [1]
Cc1ccccc1NC(=O)c1ccc(CC2=Cc3ccc(Cl)c(Cl)c3CC2)cc1 [Product A]	very useful activity	very good activity	very good activity	very good activity
Cc1ccccc1NC(=O)c1ccc(Cc2ccc3cc(Cl)ccc3c2)cc1 [Product B]	–	very good activity	very good activity	–
Cc1ccccc1NC(=O)c1ccc(Cc2ccc3c(Br)cccc3c2)cc1 [Product C]	–	very good activity	very good activity	–
Cc1ccccc1NC(=O)c1ccc(Cc2ccc3cc(Br)ccc3c2)cc1 [Product D]	–	very good activity	very good activity	–
Cc1ccccc1NC(=O)c1ccc(CC2=Cc3ccc(Br)cc3CC2)cc1 [Product E]	–	very good activity	very good activity	–
Cc1ccccc1NC(=O)c1ccc(CC2CCc3cc(I)ccc3C2)cc1 (stereo not shown) [Product F]	–	very good activity	very good activity	–
Cc1ccccc1NC(=O)c1ccc(CC2=Cc3ccc(I)cc3CC2)cc1 [Product G]	–	very good activity	very good activity	–
Cc1ccccc1NC(=O)c1ccc(CC2=Cc3cc(Br)c(Br)cc3CC2)cc1 [Product H]	–	very good activity	very good activity	–
Cc1ccccc1NC(=O)c1ccc(Cc2ccc3c(c2)CC(Br)C(Br)C3)cc1 (stereo not shown) [Product I]	–	very good activity	very good activity	–
Cc1ccccc1NC(=O)c1ccc(CC2CCc3c(ccc(Cl)c3Cl)C2F)cc1 (stereo not shown) [Product J]	–	very good activity	very good activity	–
O=C(Nc1ccccc1)c1ccc(Cc2ccc3cc(Cl)c(Cl)cc3c2)cc1 [Product K]	–	very good activity	very good activity	–
CC(C)C(C)NC(=O)c1ccc(Cc2ccc3cc(Cl)ccc3c2)cc1 (stereo not shown) [Product L]	–	–	very good activity	very good activity
C=C(NC(C)C(C)C)c1ccc(Cc2ccc3cc(Cl)c(Cl)cc3c2)cc1 (stereo not shown) [Product M]	–	–	very good activity	very good activity
